pKi: −log10 of the molar value.

For experiment [1], the target named is T1, 5-hydroxytryptamine receptor 1A (Homo sapiens, UniProt P08908).
T1 sequence (P08908 whole entry): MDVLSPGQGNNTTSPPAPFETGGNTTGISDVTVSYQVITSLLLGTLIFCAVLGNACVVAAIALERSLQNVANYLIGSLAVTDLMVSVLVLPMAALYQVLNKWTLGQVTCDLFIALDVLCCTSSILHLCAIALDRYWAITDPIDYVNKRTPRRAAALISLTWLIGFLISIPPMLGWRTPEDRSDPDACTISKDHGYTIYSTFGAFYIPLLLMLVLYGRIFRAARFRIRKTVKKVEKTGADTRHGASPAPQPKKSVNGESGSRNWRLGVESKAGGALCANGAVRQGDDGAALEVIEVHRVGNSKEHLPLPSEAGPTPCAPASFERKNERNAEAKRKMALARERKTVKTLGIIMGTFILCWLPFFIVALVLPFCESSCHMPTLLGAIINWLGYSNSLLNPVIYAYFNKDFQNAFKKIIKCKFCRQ
Briefly: Displacement of [3H]-Way100635 from 5HT1A (unknown origin) expressed in CHO cell membranes. (In general: Loss of bound radioactivity is the signal in a displacement assay; it reports binding, not function.)

In experiment [2] the target is T2, D(4) dopamine receptor (Homo sapiens, UniProt P21917).
T2 sequence (P21917 whole entry): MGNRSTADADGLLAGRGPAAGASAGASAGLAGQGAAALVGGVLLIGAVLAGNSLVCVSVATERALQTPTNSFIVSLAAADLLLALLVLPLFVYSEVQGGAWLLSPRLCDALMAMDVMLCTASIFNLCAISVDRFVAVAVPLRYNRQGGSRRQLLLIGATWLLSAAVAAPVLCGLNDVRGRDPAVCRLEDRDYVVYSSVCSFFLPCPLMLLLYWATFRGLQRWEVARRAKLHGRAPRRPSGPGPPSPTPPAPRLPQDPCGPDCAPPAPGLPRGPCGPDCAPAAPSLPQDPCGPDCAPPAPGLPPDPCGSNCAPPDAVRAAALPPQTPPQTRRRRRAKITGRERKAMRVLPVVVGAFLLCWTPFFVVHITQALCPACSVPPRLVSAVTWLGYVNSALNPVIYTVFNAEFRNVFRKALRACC
Briefly: Displacement of [3H]-N-methylspiperone from dopamine D4 receptor (unknown origin) expressed in HEK293 cell membranes.

Experiment [3] has as its target D(3) dopamine receptor (Homo sapiens, UniProt P35462). Briefly: Displacement of [3H]-N-methylspiperone from dopamine D3 receptor (unknown origin) expressed in HEK293 cell membranes.

D(3) dopamine receptor, sequence (P35462 whole entry): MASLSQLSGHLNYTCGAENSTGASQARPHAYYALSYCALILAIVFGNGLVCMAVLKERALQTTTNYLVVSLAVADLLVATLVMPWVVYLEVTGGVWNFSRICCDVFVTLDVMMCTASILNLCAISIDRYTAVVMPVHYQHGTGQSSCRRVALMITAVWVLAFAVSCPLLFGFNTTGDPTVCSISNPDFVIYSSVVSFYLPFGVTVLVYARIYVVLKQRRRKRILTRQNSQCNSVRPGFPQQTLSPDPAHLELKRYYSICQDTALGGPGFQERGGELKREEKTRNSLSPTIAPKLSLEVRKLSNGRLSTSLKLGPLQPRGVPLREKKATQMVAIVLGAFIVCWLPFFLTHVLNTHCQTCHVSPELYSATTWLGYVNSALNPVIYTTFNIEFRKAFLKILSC

Broadly, the pKi is the Ki on a negative log10 scale, so that one unit is a factor of ten. Turning to `COc1cc2c(cc1OC)C(=O)N(CCCCN1CCN(c3ccccn3)CC1)CCC2`, the pKi in experiment [1] was 8.92; in experiment [2] it was 8.19; in experiment [3] it was 8.52.

The values are drawn from ChEMBL document CHEMBL4371009, “Polypharmacology by Design: A Medicinal Chemist's Perspective on Multitargeting Compounds” (J Med Chem, 2019).
